Results published in ChEMBL document CHEMBL5137082, “Discovery of a Novel Vascular Disrupting Agent Inhibiting Tubulin Polymerization and HDACs with Potent Antitumor Effects” (J Med Chem, 2022).

Biological target: T1, Protein deacetylase HDAC6 (Homo sapiens, UniProt Q9UBN7)
T1 sequence (Q9UBN7 whole entry): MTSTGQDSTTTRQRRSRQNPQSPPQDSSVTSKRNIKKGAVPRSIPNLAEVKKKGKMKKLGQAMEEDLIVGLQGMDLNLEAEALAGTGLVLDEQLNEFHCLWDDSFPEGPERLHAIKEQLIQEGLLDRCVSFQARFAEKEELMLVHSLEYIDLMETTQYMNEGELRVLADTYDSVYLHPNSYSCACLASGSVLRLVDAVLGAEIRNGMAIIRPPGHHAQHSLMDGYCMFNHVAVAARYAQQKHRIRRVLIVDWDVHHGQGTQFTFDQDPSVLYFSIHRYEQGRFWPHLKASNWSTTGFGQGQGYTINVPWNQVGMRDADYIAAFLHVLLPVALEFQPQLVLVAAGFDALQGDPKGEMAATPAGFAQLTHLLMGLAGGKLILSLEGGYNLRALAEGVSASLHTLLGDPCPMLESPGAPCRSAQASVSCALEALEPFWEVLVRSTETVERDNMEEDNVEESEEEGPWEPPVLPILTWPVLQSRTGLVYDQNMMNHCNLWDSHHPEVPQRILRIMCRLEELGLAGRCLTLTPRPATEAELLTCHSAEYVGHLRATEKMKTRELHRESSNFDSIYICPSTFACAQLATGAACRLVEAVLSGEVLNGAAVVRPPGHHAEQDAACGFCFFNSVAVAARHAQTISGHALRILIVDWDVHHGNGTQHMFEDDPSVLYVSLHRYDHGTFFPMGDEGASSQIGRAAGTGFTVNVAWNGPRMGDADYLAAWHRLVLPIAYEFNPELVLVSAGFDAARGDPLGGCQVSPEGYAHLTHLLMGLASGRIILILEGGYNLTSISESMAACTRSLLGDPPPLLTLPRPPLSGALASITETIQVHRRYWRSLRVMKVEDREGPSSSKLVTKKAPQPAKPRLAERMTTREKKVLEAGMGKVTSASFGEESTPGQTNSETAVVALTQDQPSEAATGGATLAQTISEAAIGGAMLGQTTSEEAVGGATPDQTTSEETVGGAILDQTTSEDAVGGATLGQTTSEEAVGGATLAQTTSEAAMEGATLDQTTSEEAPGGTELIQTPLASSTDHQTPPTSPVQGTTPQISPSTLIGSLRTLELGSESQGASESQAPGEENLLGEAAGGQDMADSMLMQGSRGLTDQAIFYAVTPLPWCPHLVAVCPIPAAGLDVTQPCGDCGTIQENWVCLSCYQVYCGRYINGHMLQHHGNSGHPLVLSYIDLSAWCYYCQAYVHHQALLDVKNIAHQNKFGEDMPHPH
Assay: Inhibition of HDAC6 in human HeLa cells using BOC-K(Ac)-AMC as substrate measured after 30 mins by fluorescence based microtiter plate reader assay
Format: cell-based

With `COc1ccc(CNC(=O)c2cc(F)ccc2N2CCOCC2)cc1/C=C/C(=O)NO` as the compound, how does the IC50 read?
The IC50 was 0.138 µM.
